21 compounds from patent US10959432B2, “Microbiocidal oxadiazole derivatives” (Syngenta Participations AG, priority 2016, dated 2021) can be followed below.

What is called inhibition is the percentage by which the read-out fell short of the control.

Assay [1] concerns Puccinia recondita f. sp. tritici. Description: Fungicidal activity against Puccinia recondita f. sp. tritici / wheat / leaf disc preventative (brown rust). Format: in vivo. Conditions: foliar, 200 ppm in the applied formulation, wheat leaf segments cv. Kanzler, preventative (inoculated 1 day after application), assessed 7 to 9 days after application, read-out: disease control compared to untreated control leaf disks. As to the method:
(§1) Leaf disks or leaf segments of various plant species are cut from plants grown in a greenhouse. The cut leaf disks or segments are placed in multiwell plates (24-well format) onto water agar. The leaf disks are sprayed with a test solution before (preventative) or after (curative) inoculation. Compounds to be tested are prepared as DMSO solutions (max. 10 mg/ml) which are diluted to the appropriate concentration with 0.025% Tween20 just before spraying. The inoculated leaf disks or segments are incubated under defined conditions (temperature, relative humidity, light, etc.) according to the respective test system. A single evaluation of disease level is carried out 3 to 14 days after inoculation, depending on the pathosystem. Percent disease control relative to the untreated check leaf disks or segments is then calculated. General Examples of Liquid Culture Tests in Well Plates:
Example 1: Fungicidal Activity Against Puccinia recondita f. sp. tritici/Wheat/Leaf Disc Preventative (Brown Rust)
Wheat leaf segments cv. Kanzler were placed on agar in multiwell plates (24-well format) and sprayed with the formulated test compound diluted in water. The leaf disks were inoculated with a spore suspension of the fungus 1 day after application. The inoculated leaf segments were incubated at 19C and 75% relative humidity (rh) under a light regime of 12 hours light/12 hours darkness in a climate cabinet and the activity of a compound was assessed as percent disease control compared to untreated when an appropriate level of disease damage appears in untreated check leaf segments (7 to 9 days after application).
(§2) The following compounds at 200 ppm in the applied formulation give at least 80% disease control in this test when compared to untreated control leaf disks under the same conditions, which show extensive disease development.

The next assay deals with Phakopsora pachyrhizi. In words: Fungicidal activity against Phakopsora pachyrhizi / soybean / leaf disc preventative (Asian soybean rust). It counts as in vivo. As to conditions: foliar, read-out: disease control compared to untreated control leaf disks. Here is the method:
as §1
Example 3: Fungicidal Activity Against Phakopsora pachyrhizi/Soybean/Leaf Disc Preventative (Asian Soybean Rust)
Soybean leaf disks are placed on water agar in multiwell plates (24-well format) and sprayed with the formulated test compound diluted in water. One day after application leaf discs are inoculated by spraying a spore suspension on the lower leaf surface. After an incubation period in a climate cabinet of 24-36 hours in darkness at 20° C. and 75% rh leaf disc are kept at 20° C. with 12 h light/day and 75% rh. The activity of a compound is assessed as percent disease control compared to untreated when an appropriate level of disease damage appears in untreated check leaf disks (12 to 14 days after application).
as §2

The test system of assay [2] is Glomerella laqenarium (Colletotrichum lagenarium). In words: Fungicidal activity against Glomerella lagenarium (Colletotrichum lagenarium) liquid culture / cucumber / preventative (anthracnose). Format: cell-based. Conditions: Colletotrichum orbiculare, read-out: disease control compared to untreated control (inhibition of growth measured photometrically). Here is the method:
Mycelia fragments or conidia suspensions of a fungus prepared either freshly from liquid cultures of the fungus or from cryogenic storage, are directly mixed into nutrient broth. DMSO solutions of the test compound (max. 10 mg/ml) are diluted with 0.025% Tween20 by a factor of 50 and 10 μl of this solution is pipetted into a microtiter plate (96-well format). The nutrient broth containing the fungal spores/mycelia fragments is then added to give an end concentration of the tested compound. The test plates are incubated in the dark at 24° C. and 96% relative humidity. The inhibition of fungal growth is determined photometrically after 2 to 7 days, depending on the pathosystem, and percent antifungal activity relative to the untreated check is calculated.
Example 4: Fungicidal Activity Against Glomerella laqenarium (Colletotrichum lagenarium) Liquid Culture/Cucumber/Preventative (Anthracnose)
Conidia of the fungus from cryogenic storage are directly mixed into nutrient broth (PDB—potato dextrose broth). After placing a (DMSO) solution of test compound into a microtiter plate (96-well format), the nutrient broth containing the fungal spores is added. The test plates are incubated at 24° C. and the inhibition of growth is measured photometrically 3 to 4 days after application.
The following compounds at 20 ppm in the applied formulation give at least 80% disease control in this test when compared to untreated control under the same conditions, which show extensive disease development.

The subject of assay [3] is Puccinia recondita f. sp. tritici. In words: Fungicidal activity against Puccinia recondita f. sp. tritici / wheat / leaf disc curative (brown rust). It counts as in vivo. Conditions: foliar, 200 ppm in the applied formulation, wheat leaf segments cv. Kanzler, curative (applied 1 day after inoculation), assessed 6 to 8 days after application, read-out: disease control compared to untreated control leaf disks. Here is the method:
as §1
Example 2: Fungicidal Activity Against Puccinia recondita f. sp. Tritici/Wheat/Leaf Disc Curative (Brown Rust)
Wheat leaf segments cv. Kanzler are placed on agar in multiwell plates (24-well format). The leaf segments are then inoculated with a spore suspension of the fungus. Plates were stored in darkness at 19° C. and 75% relative humidity. The formulated test compound diluted in water was applied 1 day after inoculation. The leaf segments were incubated at 19° C. and 75% relative humidity under a light regime of 12 hours light/12 hours darkness in a climate cabinet and the activity of a compound was assessed as percent disease control compared to untreated when an appropriate level of disease damage appears in untreated check leaf segments (6 to 8 days after application).
as §2

[4] abbreviates: 200 ppm in the applied formulation, soybean leaf disks, preventative (inoculated one day after application), assessed 12 to 14 days after application.
The mark [5] stands for this setting: 20 ppm in the applied formulation, liquid culture in PDB, 24° C., 3 to 4 days after application.

Like-named read-outs stand apart in the source and are kept apart here. Some results are limits rather than exact numbers.

As to `CN(C(=O)c1ccc(-c2noc(C(F)(F)F)n2)cc1)C1CCN(C(=O)OC(C)(C)C)C1` (centres unmarked) [Compound 1a.1, tert-butyl 3-[methyl-[4-[5-(trifluoromethyl)-1,2,4-oxadiazol-3-yl]benzoyl]amino]pyrrolidine-1-carboxylate], the pest or weed control at 200 ppm (in assay [1]; in the assay on Phakopsora pachyrhizi (setting [4])) was ≥ 80% each time. Also, the inhibition at 20 ppm in assay [2] (setting [5]) was ≥ 80%.

As for `CCCN(CC1CC1)C(=O)c1ccc(-c2noc(C(F)(F)F)n2)cc1` [Compound 2a.1, N-(cyclopropylmethyl)-N-propyl-4-[5-(trifluoromethyl)-1,2,4-oxadiazol-3-yl]benzamide], the pest or weed control at 200 ppm in the assay with Phakopsora pachyrhizi (setting [4]) was ≥ 80%. Besides, in assay [2] (setting [5]), the inhibition at 20 ppm is ≥ 80%. Take `CN(CCCO)C(=O)c1ccc(-c2noc(C(F)(F)F)n2)cc1` [Compound 3a.6, N-(3-hydroxypropyl)-N-methyl-4-[5-(trifluoromethyl)-1,2,4-oxadiazol-3-yl]benzamide]: the pest or weed control at 200 ppm (in assay [3]; in the assay with Phakopsora pachyrhizi (setting [4])) was ≥ 80% throughout.

With `CN(CC(C)(C)CO)C(=O)c1ccc(-c2noc(C(F)(F)F)n2)cc1` [Compound 3a.8, N-(3-hydroxy-2,2-dimethyl-propyl)-N-methyl-4-[5-(trifluoromethyl)-1,2,4-oxadiazol-3-yl]benzamide], in the assay on Phakopsora pachyrhizi (setting [4]), the pest or weed control at 200 ppm is ≥ 80%. For the same compound, in assay [2] (setting [5]), the inhibition at 20 ppm is ≥ 80%. In the case of `CC(CCO)NC(=O)c1ccc(-c2noc(C(F)(F)F)n2)cc1` (centres unmarked) [Compound 3a.15, N-(3-hydroxy-1-methyl-propyl)-4-[5-(trifluoromethyl)-1,2,4-oxadiazol-3-yl]benzamide], the pest or weed control at 200 ppm (in assay [3]; with Phakopsora pachyrhizi (setting [4])) was ≥ 80% throughout. In the case of `CN(CCCCO)C(=O)c1ccc(-c2noc(C(F)(F)F)n2)cc1` [Compound 3a.19, N-(4-hydroxybutyl)-N-methyl-4-[5-(trifluoromethyl)-1,2,4-oxadiazol-3-yl]benzamide], the pest or weed control at 200 ppm in the assay on Phakopsora pachyrhizi (setting [4]) is ≥ 80%. In the case of `O=C(NCCCCCO)c1ccc(-c2noc(C(F)(F)F)n2)cc1` [Compound 3a.21, N-(5-hydroxypentyl)-4-[5-(trifluoromethyl)-1,2,4-oxadiazol-3-yl]benzamide], the pest or weed control at 200 ppm (in assay [3]; in the assay on Phakopsora pachyrhizi (setting [4])) was ≥ 80% each time. As for `CC(C)CN(CC(C)C)C(=O)c1ccc(-c2noc(C(F)(F)F)n2)cc1` [Compound 3a.23, N,N-diisobutyl-4-[5-(trifluoromethyl)-1,2,4-oxadiazol-3-yl]benzamide], the pest or weed control at 200 ppm in the assay with Phakopsora pachyrhizi (setting [4]) is ≥ 80%. Also, the inhibition at 20 ppm in assay [2] (setting [5]) was ≥ 80%.

On to `CCCCN(CCO)C(=O)c1ccc(-c2noc(C(F)(F)F)n2)cc1` [Compound 3a.25, N-butyl-N-(2-hydroxyethyl)-4-[5-(trifluoromethyl)-1,2,4-oxadiazol-3-yl]benzamide], for which the pest or weed control at 200 ppm in the assay on Phakopsora pachyrhizi (setting [4]) was ≥ 80%. In addition, in assay [2] (setting [5]), the inhibition at 20 ppm was ≥ 80%. For the compound `CCOC(=O)CC(C)NC(=O)c1ccc(-c2noc(C(F)(F)F)n2)cc1` (centres unmarked) [Compound 3a.26, ethyl 3-[[4-[5-(trifluoromethyl)-1,2,4-oxadiazol-3-yl]benzoyl]amino]butanoate], the pest or weed control at 200 ppm (in assay [1]; with Phakopsora pachyrhizi (setting [4])) was ≥ 80% in each case. In addition, the inhibition at 20 ppm in assay [2] (setting [5]) is ≥ 80%. Turning to `CCCCCCNC(=O)c1ccc(-c2noc(C(F)(F)F)n2)cc1` [Compound 3a.29, N-hexyl-4-[5-(trifluoromethyl)-1,2,4-oxadiazol-3-yl]benzamide], the pest or weed control at 200 ppm with Phakopsora pachyrhizi is ≥ 80%. In assay [2], the inhibition at 20 ppm is ≥ 80%. As for `CCC(CC)CNC(=O)c1ccc(-c2noc(C(F)(F)F)n2)cc1` [Compound 3a.39, N-(2-ethylbutyl)-4-[5-(trifluoromethyl)-1,2,4-oxadiazol-3-yl]benzamide], the pest or weed control at 200 ppm in the assay on Phakopsora pachyrhizi (setting [4]) was ≥ 80%. In addition, in assay [2] (setting [5]), the inhibition at 20 ppm is ≥ 80%. Take `CC(C)(CCO)NC(=O)c1ccc(-c2noc(C(F)(F)F)n2)cc1` [Compound 3a.42, N-(3-hydroxy-1,1-dimethyl-propyl)-4-[5-(trifluoromethyl)-1,2,4-oxadiazol-3-yl]benzamide]: the pest or weed control at 200 ppm in the assay on Phakopsora pachyrhizi (setting [4]) is ≥ 80%. For `CN(CCCO)C(=O)c1ccc(-c2noc(C(F)(F)F)n2)cc1F` [Compound 3b.9, 2-fluoro-N-(3-hydroxypropyl)-N-methyl-4-[5-(trifluoromethyl)-1,2,4-oxadiazol-3-yl]benzamide], the pest or weed control at 200 ppm (in assay [3]; with Phakopsora pachyrhizi (setting [4])) was ≥ 80% throughout. On to `COCCN(C(=O)c1ccc(-c2noc(C(F)(F)F)n2)cc1F)C(C)C` [Compound 3b.13, 2-fluoro-N-isopropyl-N-(2-methoxyethyl)-4-[5-(trifluoromethyl)-1,2,4-oxadiazol-3-yl]benzamide], for which the pest or weed control at 200 ppm in the assay on Phakopsora pachyrhizi (setting [4]) is ≥ 80%. Moreover, in assay [2] (setting [5]), the inhibition at 20 ppm was ≥ 80%. As to `CN(CCO)C(=O)c1ccc(-c2noc(C(F)(F)F)n2)cc1F` [Compound 3b.25, 2-fluoro-N-(2-hydroxyethyl)-N-methyl-4-[5-(trifluoromethyl)-1,2,4-oxadiazol-3-yl]benzamide], the pest or weed control at 200 ppm with Phakopsora pachyrhizi (setting [4]) was ≥ 80%. Turning to `O=C(NCCCCO)c1ccc(-c2noc(C(F)(F)F)n2)cc1F` [Compound 3b.26, 2-fluoro-N-(4-hydroxybutyl)-4-[5-(trifluoromethyl)-1,2,4-oxadiazol-3-yl]benzamide], the pest or weed control at 200 ppm (in assay [1]; in the assay with Phakopsora pachyrhizi (setting [4])) was ≥ 80% each time. Moreover, the inhibition at 20 ppm in assay [2] (setting [5]) was ≥ 80%. Regarding `CCC(CC)CNC(=O)c1ccc(-c2noc(C(F)(F)F)n2)cc1F` [Compound 3b.42, N-(2-ethylbutyl)-2-fluoro-4-[5-(trifluoromethyl)-1,2,4-oxadiazol-3-yl]benzamide], in the assay with Phakopsora pachyrhizi (setting [4]), the pest or weed control at 200 ppm is ≥ 80%. Consider `Cc1cc(C#N)c(NC(=O)c2ccc(-c3noc(C(F)(F)F)n3)cc2)s1` [Compound 5a.1, N-(3-cyano-5-methyl-2-thienyl)-4-[5-(trifluoromethyl)-1,2,4-oxadiazol-3-yl]benzamide], for which the pest or weed control at 200 ppm in the assay on Phakopsora pachyrhizi (setting [4]) was ≥ 80%. On the same count and under the same terms, with `O=C(Nc1cn[nH]c1)c1ccc(-c2noc(C(F)(F)F)n2)cc1` [Compound 5a.3, N-(1H-pyrazol-4-yl)-4-[5-(trifluoromethyl)-1,2,4-oxadiazol-3-yl]benzamide] the figure was ≥ 80%; with `COC1=NS(C)=NC(N(C)C(=O)c2ccc(-c3noc(C(F)(F)F)n3)cc2F)=N1` (centres unmarked) [Compound 5b.8, 2-fluoro-N-(5-methoxy-1-methyl-1-thia-2,4,6-triazacyclohexa-2,4,6-trien-3-yl)-N-methyl-4-[5-(trifluoromethyl)-1,2,4-oxadiazol-3-yl]benzamide], ≥ 80%.
